Patent publication US8492589B2, “Alkynyl phenyl derivative compounds for treating ophthalmic diseases and disorders” (Acucela Inc., priority 2007, dated 2013)
Read-outs that look alike come from different tables or passages of the source.

Biological target: T1, isomerase (Mus musculus, UniProt Q91ZQ5)
T1 construct: The recovery of 11-cis-retinal after bleaching can be used to estimate the activity of isomerase in vivo; from tissue; host or cells: eyes of living CD-1 and Balb/c male mice
T1 sequence (Q91ZQ5 1-533): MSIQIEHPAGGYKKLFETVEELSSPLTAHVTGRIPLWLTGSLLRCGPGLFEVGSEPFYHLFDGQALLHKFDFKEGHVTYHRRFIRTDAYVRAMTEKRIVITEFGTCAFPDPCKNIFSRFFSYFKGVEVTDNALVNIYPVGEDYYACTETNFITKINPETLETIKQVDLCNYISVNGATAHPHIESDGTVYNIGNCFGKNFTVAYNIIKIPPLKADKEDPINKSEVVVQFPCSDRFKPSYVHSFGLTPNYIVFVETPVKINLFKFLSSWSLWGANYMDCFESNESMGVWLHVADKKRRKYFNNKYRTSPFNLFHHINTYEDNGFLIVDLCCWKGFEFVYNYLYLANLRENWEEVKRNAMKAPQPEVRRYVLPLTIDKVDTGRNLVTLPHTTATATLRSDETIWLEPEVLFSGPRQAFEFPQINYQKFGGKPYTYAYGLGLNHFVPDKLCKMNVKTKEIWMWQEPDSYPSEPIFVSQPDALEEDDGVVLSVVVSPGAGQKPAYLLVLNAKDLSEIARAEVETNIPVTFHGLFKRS
Test: In vivo murine isomerase assay (recovery of 11-cis-retinal after photobleaching)
Parameters: species or system mice
Settings: for ED50 / inhibition in vivo at 1 mg/kg / inhibition in vivo at 5 mg/kg / inhibition at 1 mg/kg / inhibition at 5 mg/kg: mouse; for ED50 / inhibition at 1 mg/kg / inhibition at 5 mg/kg: po; for ED50: read-out: ED50 (dose of compound that gives 50% inhibition of 11-cis retinal (oxime) recovery), estimated, male Balb/c mice, HCl salts dosed orally in mg/kg; for ED50 / inhibition of isomerase activity in vivo (figure legend): photobleached 4 hours after dosing; for inhibition of isomerase activity in vivo (figure legend): oral dose response, Balb/c mice; for inhibition in vivo at 1 mg/kg / inhibition in vivo at 5 mg/kg: read-out: % Inibition; for isomerase inhibitory activity / inhibition at 1 mg/kg / inhibition at 5 mg/kg: CD1 male mice
Description: The capability of alkynyl phenyl-linked amine derivatives to inhibit isomerase is determined by an in vivo murine isomerase assay. Brief exposure of the eye to intense light (“photobleaching” of the visual pigment or simply “bleaching”) is known to photo-isomerize almost all 11-cis-retinal in the retina. The recovery of 11-cis-retinal after bleaching can be used to estimate the activity of isomerase in vivo. Delayed recovery, as represented by lower 11-cis-retinal oxime levels, indicates inhibition of isomerization reaction. Procedures were performed essentially as described by Golczak et al., Proc. Natl. Acad. Sci. […] See also Deigner et al., Science, 244: 968-71 (1989); […] Parish, et al., Proc. Natl. Acad. Sci. USA, 14609-13 (1998); […] Six-week old dark-adapted CD-1 (albino) male mice were orally gavaged with compound (0.03-3 mg/kg) dissolved in 100 μl corn oil containing 10% ethanol (five animals per group). […] After 2-24 hours in the dark, the mice were exposed to photobleaching of 5,000 lux of white light for 10 minutes. The mice were allowed to recover 2 hours in the dark. The animals were then sacrificed by carbon dioxide inhalation. Retinoids were extracted from the eye and the regeneration of 11-cis-retinal was assessed at various time intervals. All steps were performed in darkness with minimal redlight illumination (low light darkroom lights and […] flashlights for spot illumination as needed) (see, e.g., Maeda et al., J. Neurochem 85:944-956, 2003; Van Hooser et al., J Biol Chem 277:19173-82, 2002). After the mice were sacrificed, the eyes were immediately removed and placed in liquid nitrogen for storage. The eyes were placed in 500 μL of bis-tris propane buffer (10 mM, pH 7.3) and 20 μL of 0.8M hydroxile amine (pH-7.3). The eyes were cut up into small pieces with small iris scissors and then thoroughly homogenized at 30000 rpm with a mechanical homogenizer (Polytron PT 1300 D) in the tube until no visible tissue remained. 500 μL of methanol and 500 μL of heptane were added to each tube. The tubes were attached to a vortexer so that the contents were mixed thoroughly for 15 minutes in room temperature. […] The samples were analyzed on an Agilent 1100 HPLC system with normal phase column: SILICA (Beckman Coutlier, dp 5 μm, […]). The running method has a flow rate of 1.5 ml/min; solvent components are 15% solvent 1 (1% isopropanol in ethyl acetate), and 85% solvent 2 (100% hexanes). Loading volume for each sample is 100 μl; detection wavelength is 360 nm. The area under the curve for 11-cis retinal oxime was calculated by Agilent Chemstation software and was recorded manually. Data processing was performed using Prizm software. Positive control mice (no compound administered) were sacrificed fully dark-adapted and the eye retinoids analyzed. Light (bleached) control mice (no compound administered) were sacrificed and retinoids isolated and analyzed immediately after light treatment. […] Animals that received Compound 19 HCl were orally dosed with 0.01 and 1 mg/kg of compound in sterile water as solution, and photobleached 4 hours after dosing. Recovery and retinoid analysis were performed as described above. Dark control mice were vehicle-only treated, sacrificed fully dark adapted without light treatment, and analyzed. […] A time course study was performed to determine the isomerase inhibitory activity of Compounds 2, 18 and 19. Male Balb/c mice (4/group) received 3 mg Compound 2-HCl, Compound 18-HCl or Compound 19-HCl (in water) per kg bodyweight orally, by gavage. The animals were then “photo-bleached” (5000 Lux white light for 10 minutes) at 2, 4, 8, 16 and 24 hours after dosing, and returned to darkness to allow recovery of the 11-cis-retinal content of the eyes. Mice were sacrificed 2 hours after bleaching, eyes were enucleated, and retinoid content was analyzed by HPLC. A single dose study of the compound of Example 36 (Compound 36) was performed, at 1 mg/kg and 5 mg/kg oral dosing, 2, 4, 6, and 24 hours post bleaching. […]

SMILES	inhibition in vivo at 1 mg/kg (4 h) [%]	inhibition in vivo at 1 mg/kg (24 h) [%]	inhibition in vivo at 5 mg/kg (4 h) [%]	inhibition in vivo at 5 mg/kg (24 h) [%]	also measured
CCCC(O)(C#Cc1cccc([C@H](O)CCN)c1)CCC [Compound 100, (R)-4-((3-(3-Amino-1-Hydroxypropyl)Phenyl)Ethynyl)Heptan-4-ol]	–	–	–	–	ED50: 0.2 mg/kg; inhibition of isomerase activity in vivo (figure legend): concentration-dependent inhibition
CCCC(O)(C#Cc1cccc([C@@H](O)CCN)c1)CCC [Compound 101, (S)-4-((3-(3-Amino-1-Hydroxypropyl)Phenyl)Ethynyl)Heptan-4-ol]	–	–	–	–	ED50: 0.38 mg/kg; inhibition of isomerase activity in vivo (figure legend): concentration-dependent inhibition
CCCC(O)(C#Cc1cccc(CCCN)c1)CCC [Example 2, 4-((3-(3-Aminopropyl)phenyl)ethynyl)heptan-4-ol]	–	–	–	–	ED50: 0.69 mg/kg; inhibition of isomerase activity in vivo (figure legend): concentration-dependent inhibition
CCCC(C#Cc1cccc(CCCN)c1)(CCC)OC [Example 4, 3-(3-(3-Methoxy-3-propylhex-1-ynyl)phenyl)propan-1-amine]	21	0	95	0	–
CC(C)(O)C#Cc1cccc(CCCN)c1 [Example 7, 4-(3-(3-Aminopropyl)phenyl)-2-methylbut-3-yn-2-ol]	–	–	49	0	–
NCCCc1cccc(C#CC2(O)CCCCC2)c1 [Example 11, 1-((3-(3-Aminopropyl)phenyl)ethynyl)cyclohexanol]	0	0	17	0	–
CCCC(O)(C#Cc1cccc(OCCN)c1)CCC [Example 18, 4-((3-(2-Aminoethoxy)phenyl)ethynyl)heptan-4-ol]	–	–	–	–	ED50: 1.73 mg/kg; inhibition of isomerase activity in vivo (figure legend): concentration-dependent inhibition
CCCC(O)(C#Cc1cccc(C(O)CCN)c1)CCC (stereo not drawn) [Example 19, 4-((3-(3-Amino-1-hydroxypropyl)phenyl)ethynyl)heptan-4-ol]	–	–	–	–	ED50: 0.33 mg/kg; inhibition of isomerase activity in vivo (figure legend): concentration-dependent inhibition
NCCCc1cccc(C#CC2(O)CCCC2)c1 [Example 24, 1-((3-(3-Aminopropyl)phenyl)ethynyl)cyclopentanol]	0	0	27	0	–
CC(C)(C)C(C)(O)C#Cc1cccc(CCCN)c1 (stereo not drawn) [Example 25, 1-(3-(3-Aminopropyl)phenyl)-3,4,4-trimethylpent-1-yn-3-ol]	1	0	–	–	–
CCC(O)(C#Cc1cccc(OCCN)c1)CC [Example 27, 1-(3-(2-Aminoethoxy)phenyl)-3-ethylpent-1-yn-3-ol]	7	6	65	0	–
CC(C)C(O)(C#Cc1cccc(OCCN)c1)C(C)C [Example 28, 1-(3-(2-Aminoethoxy)phenyl)-3-isopropyl-4-methylpent-1-yn-3-ol]	27	0	–	–	–
NCCOc1cccc(C#CC2(O)CCCC2)c1 [Example 31, 1-((3-(2-Aminoethoxy)phenyl)ethynyl)cyclopentanol]	18	0	–	–	–
CC(C)C(O)(C#Cc1cccc(CCCN)c1)C(C)C [Example 32, 1-(3-(3-Aminopropyl)phenyl)-3-isopropyl-4-methylpent-1-yn-3-ol]	75	14	–	–	–
COc1ccccc1C#Cc1cccc(CCCN)c1 [Example 36, 3-(3-((2-Methoxyphenyl)Ethynyl)Phenyl)Propan-1-Amine]	–	–	–	–	isomerase inhibitory activity (1 mg/kg single oral dose): inactive; isomerase inhibitory activity (5 mg/kg single oral dose, at 24 h): full recovery; inhibition at 1 mg/kg (1 mg/kg single oral dose, 2 h): 6%; inhibition at 1 mg/kg (1 mg/kg single oral dose, 6 h): 5%; inhibition at 1 mg/kg (1 mg/kg single oral dose, 24 h): 0%; inhibition at 5 mg/kg (5 mg/kg single oral dose, 2 h): 46%; inhibition at 5 mg/kg (5 mg/kg single oral dose, 6 h): 45%; inhibition at 5 mg/kg (5 mg/kg single oral dose, 24 h): 0%
NCCCc1cccc(C#Cc2ccccc2)c1 [Example 37, 3-(3-(Phenylethynyl)phenyl)propan-1-amine]	23	9	73	0	–
NCCCc1cccc(C#CC2CCCC2)c1 [Example 38, 3-(3-(Cyclopentylethynyl)phenyl)propan-1-amine]	0	0	8	1	–

The next lines start with results.

inhibition in vivo at 1 mg/kg (4 h) [%]	inhibition in vivo at 1 mg/kg (24 h) [%]	inhibition in vivo at 5 mg/kg (4 h) [%]	inhibition in vivo at 5 mg/kg (24 h) [%]	SMILES	also measured
3	0	–	–	CCC(O)(C#Cc1cccc(CCCN)c1)CC [Example 1, 1-(3-(3-Aminopropyl)phenyl)-3-ethylpent-1-yn-3-ol]	–
–	–	0	0	CCCC(O)C#Cc1cccc(CCCN)c1 (stereo not drawn) [Example 8, 1-(3-(3-Aminopropyl)phenyl)hex-1-yn-3-ol]	–
18	0	–	–	NCCCc1cccc(C#C[C@@H](O)c2ccccc2)c1 [Example 26, (S)-3-(3-(3-Aminopropyl)phenyl)-1-phenylprop-2-yn-1-ol]	–
100	2	–	–	NCCC(O)c1cccc(C#CC2CCCC2)c1 (stereo not drawn) [Example 47, 3-Amino-1-(3-(cyclopentylethynyl)phenyl)propan-1-ol]	–
13	31	–	–	NCCC(O)c1cccc(C#CCCCCO)c1 (stereo not drawn) [Example 50, 6-(3-(3-Amino-1-hydroxypropyl)phenyl)hex-5-yn-1-ol]	–
0	0	–	–	NCCC(O)c1cccc(C#CCCO)c1 (stereo not drawn) [Example 51, 4-(3-(3-Amino-1-hydroxypropyl)phenyl)but-3-yn-1-ol]	–
72	2	–	–	NCCC(O)c1cccc(C#CC2CCCCC2)c1 (stereo not drawn) [Example 52, 3-Amino-1-(3-(Cyclohexylethynyl)Phenyl)Propan-1-ol]	–
